# Test results taken from PubChem BioAssay (NCI).
#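 48-hour exposure; five concentrations; linearly interpolated endpoints. GI50: concentration for 50% inhibition of growth. Definition used: TGI = concentration required for complete inhibition of growth.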
# Columns and labels:
# Test in all cases: growth of human tumour cells (NCI), 48 h
# 786-0 renal = system: 786-0 renal
# A498 renal = system: A498 renal
# A549 NSCLC = system: A549 NSCLC
# ACHN renal = system: ACHN renal
# BT-549 breast = system: BT-549 breast
# CAKI-1 renal = system: CAKI-1 renal
# CCRF-CEM leukemia = system: CCRF-CEM leukemia
# COLO 205 colon = system: COLO 205 colon
# DU-145 prostate = system: DU-145 prostate
# EKVX NSCLC = system: EKVX NSCLC
# HCC-2998 colon = system: HCC-2998 colon
# HCT-116 colon = system: HCT-116 colon
# HCT-15 colon = system: HCT-15 colon
# HL-60(TB) leukemia = system: HL-60(TB) leukemia
# HOP-62 NSCLC = system: HOP-62 NSCLC
# HOP-92 NSCLC = system: HOP-92 NSCLC
# HS 578T breast = system: HS 578T breast
# HT29 colon = system: HT29 colon
# IGROV1 ovarian = system: IGROV1 ovarian
# K-562 leukemia = system: K-562 leukemia
# KM12 colon = system: KM12 colon
# LOX IMVI melanoma = system: LOX IMVI melanoma
# M14 melanoma = system: M14 melanoma
# MALME-3M melanoma = system: MALME-3M melanoma
# MCF7 breast = system: MCF7 breast
# MDA-MB-231 breast = system: MDA-MB-231 breast
# MDA-MB-435 = system: MDA-MB-435
# MOLT-4 leukemia = system: MOLT-4 leukemia
# NCI-H226 lung = system: NCI-H226 lung
# NCI-H23 lung = system: NCI-H23 lung
# NCI-H460 lung = system: NCI-H460 lung
# NCI-H522 lung = system: NCI-H522 lung
# NCI/ADR-RES ovarian = system: NCI/ADR-RES ovarian
# OVCAR-3 ovarian = system: OVCAR-3 ovarian
# OVCAR-4 ovarian = system: OVCAR-4 ovarian
# OVCAR-5 ovarian = system: OVCAR-5 ovarian
# OVCAR-8 ovarian = system: OVCAR-8 ovarian
# PC-3 prostate = system: PC-3 prostate
# RPMI-8226 leukemia = system: RPMI-8226 leukemia
# RXF 393 renal = system: RXF 393 renal
# SF-268 CNS = system: SF-268 CNS
# SF-295 CNS = system: SF-295 CNS
# SF-539 CNS = system: SF-539 CNS
# SK-MEL-2 melanoma = system: SK-MEL-2 melanoma
# SK-MEL-28 melanoma = system: SK-MEL-28 melanoma
# SK-MEL-5 melanoma = system: SK-MEL-5 melanoma
# SK-OV-3 ovarian = system: SK-OV-3 ovarian
# SN12C renal = system: SN12C renal
# SNB-19 CNS = system: SNB-19 CNS
# SNB-75 CNS = system: SNB-75 CNS
# SR leukemia = system: SR leukemia
# SW-620 colon = system: SW-620 colon
# T-47D breast = system: T-47D breast
# TK-10 renal = system: TK-10 renal
# U251 CNS = system: U251 CNS
# UACC-257 melanoma = system: UACC-257 melanoma
# UACC-62 melanoma = system: UACC-62 melanoma
# UO-31 renal = system: UO-31 renal
compound,measurement,setting,value
Cc1ccc(NS(=O)(=O)c2ccc(-c3cnc(C4CC4)o3)cc2)cc1C,GI50,786-0 renal,544 nM
same,TGI,786-0 renal,> 37.8 µM
same,GI50,A498 renal,228 nM
same,TGI,A498 renal,932 nM
same,GI50,A549 NSCLC,751 nM
same,TGI,A549 NSCLC,> 49.2 µM
same,GI50,ACHN renal,673 nM
same,TGI,ACHN renal,> 33.9 µM
same,GI50,BT-549 breast,715 nM
same,TGI,BT-549 breast,13.7 µM
same,GI50,CAKI-1 renal,385 nM
same,TGI,CAKI-1 renal,> 42.1 µM
same,GI50,CCRF-CEM leukemia,433 nM
same,TGI,CCRF-CEM leukemia,> 59.3 µM
same,GI50,COLO 205 colon,464 nM
same,TGI,COLO 205 colon,1840 nM
same,GI50,DU-145 prostate,972 nM
same,TGI,DU-145 prostate,> 68.7 µM
same,GI50,EKVX NSCLC,713 nM
same,TGI,EKVX NSCLC,> 45.4 µM
same,GI50,HCC-2998 colon,1570 nM
same,TGI,HCC-2998 colon,> 32.8 µM
same,GI50,HCT-116 colon,394 nM
same,TGI,HCT-116 colon,10.8 µM
same,GI50,HCT-15 colon,302 nM
same,TGI,HCT-15 colon,> 33.2 µM
same,GI50,HL-60(TB) leukemia,259 nM
same,TGI,HL-60(TB) leukemia,1460 nM
same,GI50,HOP-62 NSCLC,557 nM
same,TGI,HOP-62 NSCLC,> 40.1 µM
same,GI50,HOP-92 NSCLC,308 nM
same,TGI,HOP-92 NSCLC,3.35 µM
same,GI50,HS 578T breast,450 nM
same,TGI,HS 578T breast,5.77 µM
same,GI50,HT29 colon,330 nM
same,TGI,HT29 colon,1570 nM
same,GI50,IGROV1 ovarian,593 nM
same,TGI,IGROV1 ovarian,> 43.3 µM
same,GI50,K-562 leukemia,< 37.3 nM
same,TGI,K-562 leukemia,> 68.4 µM
same,GI50,KM12 colon,279 nM
same,TGI,KM12 colon,> 32.6 µM
same,GI50,LOX IMVI melanoma,524 nM
same,TGI,LOX IMVI melanoma,> 32.3 µM
same,GI50,M14 melanoma,375 nM
same,TGI,M14 melanoma,11.8 µM
same,GI50,MALME-3M melanoma,683 nM
same,TGI,MALME-3M melanoma,18.1 µM
same,GI50,MCF7 breast,279 nM
same,GI50,MDA-MB-231 breast,797 nM
same,TGI,MDA-MB-231 breast,15.9 µM
same,GI50,MDA-MB-435,< 25.2 nM
same,TGI,MDA-MB-435,2460 nM
same,GI50,MOLT-4 leukemia,583 nM
same,TGI,MOLT-4 leukemia,> 52.7 µM
same,GI50,NCI-H226 lung,843 nM
same,TGI,NCI-H226 lung,> 28.4 µM
same,GI50,NCI-H23 lung,1130 nM
same,TGI,NCI-H23 lung,> 57.8 µM
same,GI50,NCI-H460 lung,481 nM
same,TGI,NCI-H460 lung,11.5 µM
same,GI50,NCI-H522 lung,267 nM
same,TGI,NCI-H522 lung,3.28 µM
same,GI50,NCI/ADR-RES ovarian,407 nM
same,TGI,NCI/ADR-RES ovarian,> 41.8 µM
same,GI50,OVCAR-3 ovarian,342 nM
same,TGI,OVCAR-3 ovarian,12.5 µM
same,GI50,OVCAR-4 ovarian,912 nM
same,TGI,OVCAR-4 ovarian,10.4 µM
same,GI50,OVCAR-5 ovarian,1310 nM
same,TGI,OVCAR-5 ovarian,> 38.8 µM
same,GI50,OVCAR-8 ovarian,916 nM
same,TGI,OVCAR-8 ovarian,> 55.9 µM
same,GI50,PC-3 prostate,432 nM
same,TGI,PC-3 prostate,> 27.6 µM
same,GI50,RPMI-8226 leukemia,450 nM
same,TGI,RPMI-8226 leukemia,> 25.4 µM
same,GI50,RXF 393 renal,338 nM
same,TGI,RXF 393 renal,3.89 µM
same,GI50,SF-268 CNS,1110 nM
same,TGI,SF-268 CNS,> 36.8 µM
same,GI50,SF-295 CNS,407 nM
same,TGI,SF-295 CNS,3.47 µM
same,GI50,SF-539 CNS,366 nM
same,TGI,SF-539 CNS,1770 nM
same,GI50,SK-MEL-2 melanoma,797 nM
same,TGI,SK-MEL-2 melanoma,14.4 µM
same,GI50,SK-MEL-28 melanoma,1260 nM
same,TGI,SK-MEL-28 melanoma,> 45.4 µM
same,GI50,SK-MEL-5 melanoma,390 nM
same,TGI,SK-MEL-5 melanoma,1700 nM
same,GI50,SK-OV-3 ovarian,917 nM
same,TGI,SK-OV-3 ovarian,> 29.1 µM
same,GI50,SN12C renal,711 nM
same,TGI,SN12C renal,> 34 µM
same,GI50,SNB-19 CNS,522 nM
same,TGI,SNB-19 CNS,> 63.8 µM
same,GI50,SNB-75 CNS,184 nM
same,TGI,SNB-75 CNS,823 nM
same,GI50,SR leukemia,476 nM
same,TGI,SR leukemia,> 100 µM
same,GI50,SW-620 colon,341 nM
same,TGI,SW-620 colon,> 72.2 µM
same,GI50,T-47D breast,373 nM
same,TGI,T-47D breast,16.7 µM
same,GI50,TK-10 renal,1440 nM
same,TGI,TK-10 renal,8.03 µM
same,GI50,U251 CNS,458 nM
same,TGI,U251 CNS,> 33.9 µM
same,GI50,UACC-257 melanoma,836 nM
same,TGI,UACC-257 melanoma,9.55 µM
same,GI50,UACC-62 melanoma,383 nM
same,TGI,UACC-62 melanoma,> 38 µM
same,GI50,UO-31 renal,839 nM
same,TGI,UO-31 renal,7.74 µM
